US20240350579A1 (priority 2020, published 2024)

What was measured:
[1] = Net peptide charge and isoelectric point; type: physicochemical; settings: pH 7
Excerpt: The peptide may be purified. For example, the peptide may be lyophilized. […] Other peptides are within the scope of the disclosure.
Exemplary peptides having a charge of +5 to +9 include […](d)[…], […](d)[…], and […](d)[…]. In other embodiments, the purified peptide may be substantially neutral. […] Net charge may be selected by peptide design. Design of electrostatic charge in the peptide hydrogel may allow control of charge interaction with cell membrane and proteins.

[2] = test system: E. coli; assay: Antibacterial assay of PEPXR hydrogels; type: cell-based
Excerpt: (§1) Thus, the peptide hydrogels described herein may generally comprise a high content of positively charged arginine (R) amino acids.

[3] = test system: S. aureus; assay: Antibacterial assay of PEPXR hydrogels; type: cell-based
Excerpt: as §1

[4] = test system: P. aeruginosa; assay: Antibacterial assay of PEPXR hydrogels; type: cell-based
Excerpt: as §1
The peptide hydrogel is believed to directly lyse bacterial membranes indiscriminately. […] The mechanism additionally makes it more difficult for the treated microorganisms to gain antibiotic resistance.

Substance	net charge [1]	antimicrobial activity (in words) [2]	antimicrobial activity (in words) [3]	antimicrobial activity (in words) [4]
VEVSVSVEV(d)PPTEVSVEVEV	net negative charge	–	–	–
VKVRVRVRVPPTRVRVRVKV [PEP6R]	–	potent antimicrobial activity	potent antimicrobial activity	potent antimicrobial activity
